# In patent US20120295920A1, “5-AMINO-4-HYDROXYPENTOYL AMIDES” (priority 2009, published 2012):
# Where two headings read alike, the source gives them in different places.
# Experiments:
# HIV-1 wild-type strain = assay: General antiviral assay, cell-based virus replication in MT4-LTR-EGFP cells, wild-type strain; conditions: wild-type strain IIIB, MT4-LTR-EGFP cells
# Method: (§1) MT4-LTR-EGFP cells were obtained by transfecting MT4 cells with a selectable construct encompassing the sequences coding for the HIV long terminal repeat (LTR) as a promoter for the expression of enhanced green fluorescent protein (EGFP) and subsequent selection of permanently transfected cells.
# (§2) The antiviral activity on different HIV-1 strains, was determined in a cell-based virus replication assay. Here MT4-LTR-EGFP cells (150,000 cells/ml) are infected (multiplicity of infection [MOI] of 0.0025) in the presence or absence of different inhibitor concentrations. Two methodologies for read-out were used, either quantification of GFP-fluoresence on day 3 post-infection, or quantification of cell-viability using rezazurin (as described by Fields, R. D., and M. V. Lancaster (1993) Am. Biotechnol. Lab. 11:48-50) on day 4 post infection.
# [1] = tested on: HIV-1 Strain A (M046I, I084V); assay: microbe, parasite or virus in culture; type: cell-based; conditions: clinical isolate Strain A; read-out: A EC50
# Method: as §1, §2
# (§3) In the following Table, Strains A, B, and C are clinical isolates that include the following protease inhibitor resistance mutations in the protease domain (background mutations are not mentioned).
# [2] = tested on: HIV-1 Strain B (M046I, I050V); assay: microbe, parasite or virus in culture; type: cell-based; conditions: clinical isolate Strain B; read-out: B EC50
# Method: as §1, §2, §3
# [3] = tested on: HIV-1 Strain C (G048G/V, V082A); assay: microbe, parasite or virus in culture; type: cell-based; conditions: clinical isolate Strain C; read-out: C EC50
# Method: as §1, §2, §3
# mock-infected MT4 cells = assay: General toxicity assay on mock-infected MT4 cells with CMV-EGFP reporter (CC50); type: cell-based
# HIV-1 IIIB = assay: 50% HS-Rezazurin: antiviral assay in the presence of 50% human serum, MT-4 cells, resazurin cell viability; type: cell-based
# Method: For the Antiviral assay in the presence of 50% human serum MT-4 cells were infected with HIV-1 IIIB at a MOI of 0.001 to 0.01 CCID50/cell in RPMI1640 medium. Following 1 h of incubation, cells were washed and plated into a 96-well plate containing serial dilutions of compound in the presence of 10% fetal calf serum (FCS), or 50% human serum. After 4 days incubation, the EC50 in the presence of 50% human serum was determined by a cell viability assay using resazurin.
# The last column lists the results for the wild-type strain IIB in the presence of 50% human serum MT-4 cells.
# [4] = MT4LTR cells, read-out: TOX-MT4LTR (CC50)
# [5] = mock-infected MT4 cells with CMV-EGFP reporter, read-out: TOX-MT4CMV (CC50)
SMILES,EC50 (HIV-1 wild-type strain) [nM],EC50 [1] [nM],EC50 [2] [nM],EC50 [3] [nM],CC50 (mock-infected MT4 cells; [4]) [nM],CC50 (mock-infected MT4 cells; [5]) [nM],EC50 (HIV-1 IIIB) [nM]
COC(=O)N[C@H](C(=O)N[C@@H](Cc1ccc(-c2ccc(OC)nc2)cc1)[C@@H](O)C[C@@H](Cc1ccccc1Cl)C(=O)N[C@H]1c2ccccc2OC[C@H]1O)C(C)(C)C [Compound 37],1.7,2.5,0.9,0.8,> 32000,> 32000,4.6
COC(=O)N[C@H](C(=O)N[C@@H](Cc1ccc(-c2ccc(OC)nc2)cc1)[C@@H](O)C[C@@H](Cc1cccc(F)c1)C(=O)N[C@H]1c2cc(Cl)ccc2OC[C@H]1O)C(C)(C)C [Compound 39],3,3.9,2.1,1.3,> 32000,> 32000,16.4
COC(=O)N[C@H](C(=O)N[C@@H](Cc1ccc(-c2ccc(OC)nc2)cc1)[C@@H](O)C[C@@H](Cc1cccc(F)c1)C(=O)N[C@H]1c2cccc(F)c2OC[C@H]1O)C(C)(C)C [Compound 40],2.4,1.6,1,0.8,> 32000,> 32000,11.2
COC(=O)N[C@H](C(=O)N[C@@H](Cc1ccc(-c2ccc(OC)nc2)cc1)[C@@H](O)C[C@@H](Cc1cccc(OC(F)(F)F)c1)C(=O)N[C@H]1c2ccccc2OC[C@H]1O)C(C)(C)C [Compound 41],3,2.4,1.2,1.1,> 32000,> 32000,10.5
COC(=O)N[C@H](C(=O)N[C@@H](Cc1ccc(-c2ccc(OC)nc2)cc1)[C@@H](O)C[C@@H](Cc1cccc(OC(F)(F)F)c1)C(=O)N[C@H]1c2cc(Cl)ccc2OC[C@H]1O)C(C)(C)C [Compound 42],4.2,7.2,4.1,3.9,> 32000,> 32000,23.7
COC(=O)N[C@H](C(=O)N[C@@H](Cc1ccc(-c2cnc(N(C)C)nc2)cc1)[C@@H](O)C[C@@H](Cc1ccccc1F)C(=O)N[C@H]1c2cc(Cl)ccc2OC[C@H]1O)C(C)(C)C [Compound 43],2,1.7,1,1.1,> 32000,–,10.6
COC(=O)N[C@H](C(=O)N[C@@H](Cc1ccc(-c2ccc(OC)nc2)cc1)[C@@H](O)C[C@@H](Cc1ccccc1F)C(=O)N[C@H]1c2cccc(Cl)c2OC[C@H]1O)C(C)(C)C [Compound 45],3.5,1.2,0.8,0.7,> 32000,–,5.2
COC(=O)N[C@H](C(=O)N[C@@H](Cc1ccc(-c2cnc(OC(C)C)cn2)cc1)[C@@H](O)C[C@@H](Cc1cccc(F)c1)C(=O)N[C@H]1c2cc(Cl)ccc2OC[C@H]1O)C(C)(C)C [Compound 46],5.3,9.4,5.6,3.7,10000,–,34.6
COc1ccc(-c2ccc(C[C@H](NC(=O)[C@@H](NC(=O)C3(C#N)CC3)C(C)(C)C)[C@@H](O)C[C@@H](Cc3ccccc3F)C(=O)N[C@H]3c4cc(Cl)ccc4OC[C@H]3O)cc2)cn1 [Compound 47],3.2,11.1,6.8,5.5,> 32000,–,10.4
COC(=O)N[C@H](C(=O)N[C@@H](Cc1ccc(-c2cnc(OC)nc2)cc1)[C@@H](O)C[C@@H](Cc1ccccc1F)C(=O)N[C@H]1c2cc(Cl)ccc2OC[C@H]1O)C(C)(C)C [Compound 48],3.8,2.6,2.2,1.3,> 32000,–,7.5
COC(=O)N[C@H](C(=O)N[C@@H](Cc1ccc(-c2cnc(N(C)C)nc2)cc1)[C@@H](O)C[C@@H](Cc1cccc(OC(F)(F)F)c1)C(=O)N[C@H]1c2cc(Cl)ccc2OC[C@H]1O)C(C)(C)C [Compound 49],4.1,5.2,3.5,2.9,> 32000,–,19
COC(=O)N[C@H](C(=O)N[C@@H](Cc1ccc(-c2ccc(OC)nc2)cc1)[C@@H](O)C[C@@H](Cc1ccccc1F)C(=O)N[C@H]1c2cccc(F)c2OC[C@H]1O)C(C)(C)C [Compound 50],2.8,2,1.4,1.1,> 32000,–,6.9
COC(=O)N[C@H](C(=O)N[C@@H](Cc1ccc(-c2ccc(N(C)C)nc2)cc1)[C@@H](O)C[C@@H](Cc1ccccc1F)C(=O)N[C@H]1c2cccc(F)c2OC[C@H]1O)C(C)(C)C [Compound 51],3,2.3,1.5,1.3,> 32000,–,7
COC(=O)N[C@H](C(=O)N[C@@H](Cc1ccc(-c2cc(C)nc(C)c2)cc1)[C@@H](O)C[C@@H](Cc1ccccc1F)C(=O)N[C@H]1c2cccc(Cl)c2OC[C@H]1O)C(C)(C)C [Compound 54],4.8,2.7,2.1,1.6,> 32000,–,19.8
COCCOC(=O)N[C@H](C(=O)N[C@@H](Cc1ccc(-c2ccc(OC)nc2)cc1)[C@@H](O)C[C@@H](Cc1ccccc1F)C(=O)N[C@H]1c2cc(Cl)ccc2OC[C@H]1O)C(C)(C)C [Compound 55],2.7,2.1,1.5,1.2,> 32000,–,12.5
COC(=O)N[C@H](C(=O)N[C@@H](Cc1ccc(-c2ccc(OC)nc2)cc1)[C@@H](O)C[C@@H](Cc1ccccc1F)C(=O)N[C@H]1c2cc(F)cc(Cl)c2OC[C@H]1O)C(C)(C)C [Compound 56],2.6,1.4,1.2,0.7,> 32000,–,8.4
COC(=O)N[C@H](C(=O)N[C@@H](Cc1ccc(-c2ccc(OC)nc2)cc1)[C@@H](O)C[C@@H](Cc1ccccc1Cl)C(=O)N[C@H]1c2cc(Cl)ccc2OC[C@H]1O)C(C)(C)C [Compound 58],3.9,6,2.5,1.8,> 32000,–,13.3
COC(=O)N[C@H](C(=O)N[C@@H](Cc1ccc(-c2ccc(N(C)C)nc2)cc1)[C@@H](O)C[C@@H](Cc1ccccc1F)C(=O)N[C@H]1c2cc(Cl)cc(F)c2OC[C@H]1O)C(C)(C)C [Compound 60],4.1,2.6,1.9,1.2,10000,–,25.2
COC(=O)N[C@H](C(=O)N[C@@H](Cc1ccc(-c2ccc(OC)nc2)cc1)[C@@H](O)C[C@@H](Cc1ccccc1F)C(=O)N[C@H]1c2cc(Cl)cc(F)c2OC[C@H]1O)C(C)(C)C [Compound 61],4.1,3,2.1,1.6,> 32000,–,16.1
